Measurements reported in ChEMBL document CHEMBL1156193, “Discovery of a long-acting, peripherally selective inhibitor of catechol-O-methyltransferase” (2010).

Tests used:
[1] = Cytotoxicity against mouse Neuro2a cells assessed as cell viability at 30 uM after 24 hrs; format: functional; conditions: N2a, read-out: Activity
Mus musculus [2] = test: Inhibition of COMT in NMRI mouse liver homogenates assessed as metanephrine formation at 3 mg/kg, po measured after 3 hrs relative to control; values are per cent of control
[3] = molecular target: T1, Catechol O-methyltransferase (Rattus norvegicus) (UniProt P22734); test: Inhibition of COMT in rat liver homogenates assessed as metanephrine formation at 3 uM relative to control; values are per cent of control
T1 sequence (whole entry): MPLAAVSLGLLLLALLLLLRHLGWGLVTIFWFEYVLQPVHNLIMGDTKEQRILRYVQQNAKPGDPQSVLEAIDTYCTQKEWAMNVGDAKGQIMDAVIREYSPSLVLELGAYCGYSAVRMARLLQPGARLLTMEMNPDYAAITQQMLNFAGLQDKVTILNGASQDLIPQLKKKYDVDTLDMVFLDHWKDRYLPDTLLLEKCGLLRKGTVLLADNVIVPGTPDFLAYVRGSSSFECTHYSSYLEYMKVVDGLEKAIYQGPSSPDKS

Rattus norvegicus [4] = test: Inhibition of COMT in Wistar rat liver homogenates assessed as metanephrine formation at 3 mg/kg, po measured after 3 hrs relative to control; values are per cent of control
Mus musculus [5] = test: Inhibition of COMT in NMRI mouse liver homogenates assessed as metanephrine formation at 30 mg/kg, po measured after 6 hrs relative to control; values are per cent of control
[6] = molecular target: T1, Catechol O-methyltransferase (Rattus norvegicus); test: Inhibition of COMT in rat liver homogenates assessed as metanephrine formation at 30 uM relative to control; values are per cent of control
Rattus norvegicus [7] = test: Inhibition of COMT in Wistar rat brain homogenates assessed as metanephrine formation at 3 mg/kg, po measured after 3 hrs relative to control; values are per cent of control

## CN1CCN(c2noc(-c3cc(O)c(O)c([N+](=O)[O-])c3)n2)CC1
[1]
  viability at 30 µM: 90.2%
Mus musculus [2]
  level, % of control at 3 mg/kg: 56.8%

## Cc1[nH]nc(-c2ccc(O)c(O)c2O)c1-c1ccc(Cl)cc1
[3]
  residual activity: 15.6%

## Cc1ccc(-n2nccc2-c2cc(O)c(O)c([N+](=O)[O-])c2)cc1
[3]
  residual activity: 0%

## O=[N+]([O-])c1cc(-c2nc(-c3cccs3)no2)cc(O)c1O
[1]
  viability at 30 µM: 19.3%
Mus musculus [2]
  level, % of control at 3 mg/kg: 29.6%

## O=[N+]([O-])c1cc(-c2nc(-c3cnccn3)no2)cc(O)c1O
[1]
  viability at 30 µM: 60.5%

## O=[N+]([O-])c1cc(-c2nc(-c3ccc(C(F)(F)F)[n+]([O-])c3)no2)cc(O)c1O
[1]
  viability at 30 µM: 87%
Rattus norvegicus [4]
  level, % of control at 3 mg/kg: 34.4%

## Cc1c(C)c(C)[n+]([O-])c(Cl)c1-c1noc(-c2cc(O)c(O)c([N+](=O)[O-])c2)n1
[1]
  viability at 30 µM: 95.1%
Rattus norvegicus [4]
  level, % of control at 3 mg/kg: 7.9%

## O=[N+]([O-])c1cc(-c2nc(-c3ccc[n+]([O-])c3C(F)(F)F)no2)cc(O)c1O
[1]
  viability at 30 µM: 96.4%
Rattus norvegicus [4]
  level, % of control at 3 mg/kg: 5.5%

## Cc1cc(C)[n+]([O-])c(Cl)c1-c1noc(-c2cc(O)c(O)c([N+](=O)[O-])c2)n1
[1]
  viability at 30 µM: 92.3%
Rattus norvegicus [4]
  level, % of control at 3 mg/kg: 13.9%

## Cc1ccc(-c2noc(-c3cc(O)c(O)c([N+](=O)[O-])c3)n2)c(N2CCOCC2)n1
[1]
  viability at 30 µM: 43.8%

## Nc1nc(-c2cc(O)c(O)c([N+](=O)[O-])c2)c(-c2ccccc2)s1
Mus musculus [5]
  level, % of control at 30 mg/kg: 77.4%

## Cc1nc(-c2cc(O)c(O)c([N+](=O)[O-])c2)c(-c2ccccc2)o1
Mus musculus [5]
  level, % of control at 30 mg/kg: 84.1%

## O=[N+]([O-])c1cc(-c2nc(-c3ccc[n+]([O-])c3)no2)cc(O)c1O
[1]
  viability at 30 µM: 93.8%
Rattus norvegicus [4]
  level, % of control at 3 mg/kg: 77%

## O=[N+]([O-])c1cc(-c2nc(-c3cnccc3C(F)(F)F)no2)cc(O)c1O
[1]
  viability at 30 µM: 14.7%

## O=[N+]([O-])c1cc(-c2ccnn2-c2cccc(Cl)c2)cc(O)c1O
[3]
  residual activity: 0%

## O=[N+]([O-])c1cc(-c2nc(-c3ccc(F)cc3)no2)cc(O)c1O
[1]
  viability at 30 µM: 29.5%
Mus musculus [2]
  level, % of control at 3 mg/kg: 12.7%

## O=[N+]([O-])c1cc(-c2ccnc(-c3ccccc3)n2)cc(O)c1O
Mus musculus [5]
  level, % of control at 30 mg/kg: 44.8%

## O=[N+]([O-])c1cc(-c2ccnn2-c2ccccc2)cc(O)c1O
[3]
  residual activity: 0%
Mus musculus [5]
  level, % of control at 30 mg/kg: 60.8%

## Cc1ccc(C(=O)n2ncc(-c3ccccc3)c2-c2cc(O)c(O)c([N+](=O)[O-])c2)cc1
[3]
  residual activity: 2.8%
Mus musculus [5]
  level, % of control at 30 mg/kg: 89.3%

## Cc1cc(-c2noc(-c3cc(O)c(O)c([N+](=O)[O-])c3)n2)on1
[1]
  viability at 30 µM: 27.6%

## O=[N+]([O-])c1cc(-c2nc(-c3ccncc3)no2)cc(O)c1O
[1]
  viability at 30 µM: 27.3%

## Cn1nccc1-c1cc(O)c(O)c([N+](=O)[O-])c1
[3]
  residual activity: 1.1%

## Cc1ccc(-c2noc(-c3cc(O)c(O)c([N+](=O)[O-])c3)n2)c(Cl)[n+]1[O-]
[1]
  viability at 30 µM: 100%
Rattus norvegicus [4]
  level, % of control at 3 mg/kg: 31.6%

## Oc1ccc(-c2ccnn2-c2ccccc2)c(O)c1O
[6]
  residual activity: 26.8%

## Cc1ccc(-n2nccc2-c2ccc(O)c(O)c2)cc1
[6]
  residual activity: 41.2%

## Cc1cc(C(F)(F)F)c(-c2noc(-c3cc(O)c(O)c([N+](=O)[O-])c3)n2)c(C)[n+]1[O-]
[1]
  viability at 30 µM: 37.2%
Rattus norvegicus [4]
  level, % of control at 3 mg/kg: 1.3%

## O=[N+]([O-])c1cc(-c2nc(N3CCN(c4ccccn4)CC3)no2)cc(O)c1O
[1]
  viability at 30 µM: 24.6%
Mus musculus [2]
  level, % of control at 3 mg/kg: 32.2%

## Cc1c(-c2noc(-c3cc(O)c(O)c([N+](=O)[O-])c3)n2)c(C(F)(F)F)cc(-c2ccccc2)[n+]1[O-]
[1]
  viability at 30 µM: 26.6%
Rattus norvegicus [4]
  level, % of control at 3 mg/kg: 24.3%

## O=[N+]([O-])c1cc(-c2nc(-c3ccccn3)no2)cc(O)c1O
[1]
  viability at 30 µM: 70.5%

## O=[N+]([O-])c1cc(-c2nc(-c3ccc[n+]([O-])c3Cl)no2)cc(O)c1O
[1]
  viability at 30 µM: 93.7%
Rattus norvegicus [4]
  level, % of control at 3 mg/kg: 71.6%

## CN1CCN(C(=O)c2ccc(-c3noc(-c4cc(O)c(O)c([N+](=O)[O-])c4)n3)cc2)CC1
[1]
  viability at 30 µM: 90.7%
Mus musculus [2]
  level, % of control at 3 mg/kg: 74%

## NC(=O)c1ccc(-c2noc(-c3cc(O)c(O)c([N+](=O)[O-])c3)n2)cc1
[1]
  viability at 30 µM: 91.2%
Mus musculus [2]
  level, % of control at 3 mg/kg: 79.2%

## Cc1ccc(-c2noc(-c3cc(O)c(O)c([N+](=O)[O-])c3)n2)c(Cl)n1
[1]
  viability at 30 µM: 53.1%

## Cc1ccc(-c2noc(-c3cc(O)c(O)c([N+](=O)[O-])c3)n2)c(Br)[n+]1[O-]
[1]
  viability at 30 µM: 76.3%
Rattus norvegicus [4]
  level, % of control at 3 mg/kg: 33.7%

## Cc1c(-c2noc(-c3cc(O)c(O)c([N+](=O)[O-])c3)n2)ccc(C(F)(F)F)[n+]1[O-]
[1]
  viability at 30 µM: 62.2%
Rattus norvegicus [4]
  level, % of control at 3 mg/kg: 13.9%

## O=[N+]([O-])c1cc(-c2nc(-c3ccc(Cl)c(Cl)c3)no2)cc(O)c1O
[1]
  viability at 30 µM: 37.7%
Mus musculus [2]
  level, % of control at 3 mg/kg: 8.8%

## O=[N+]([O-])c1cc(-c2nc(-c3c[n+]([O-])ccc3C(F)(F)F)no2)cc(O)c1O
[1]
  viability at 30 µM: 93.4%
Rattus norvegicus [4]
  level, % of control at 3 mg/kg: 23.6%

## O=[N+]([O-])c1cc(-c2nc(-c3ccnc(F)c3)no2)cc(O)c1O
[1]
  viability at 30 µM: 25%

## O=[N+]([O-])c1cc(-c2cncn2-c2ccccc2)cc(O)c1O
Mus musculus [5]
  level, % of control at 30 mg/kg: 109%

## O=[N+]([O-])c1cc(-c2nnc(-c3ccccc3)o2)cc(O)c1O
Rattus norvegicus [7]
  level, % of control at 3 mg/kg: 87.9%
Rattus norvegicus [4]
  level, % of control at 3 mg/kg: 67.8%
Mus musculus [5]
  level, % of control at 30 mg/kg: 47.3%

## O=[N+]([O-])c1cc(-c2noc(-c3ccccc3)n2)cc(O)c1O
Rattus norvegicus [7]
  level, % of control at 3 mg/kg: 55.6%
Rattus norvegicus [4]
  level, % of control at 3 mg/kg: 51.9%
Mus musculus [5]
  level, % of control at 30 mg/kg: 24.4%

## O=[N+]([O-])c1cc(-c2nc(N3CCOCC3)no2)cc(O)c1O
[1]
  viability at 30 µM: 67.5%
Mus musculus [2]
  level, % of control at 3 mg/kg: 45.8%

## Oc1cc(-c2ccnn2-c2ccccc2)cc(O)c1O
[6]
  residual activity: 0.8%

## O=[N+]([O-])c1cc(-c2c(-c3ccccc3)cnn2-c2cccc(Cl)c2)cc(O)c1O
[3]
  residual activity: 68.6%

## O=C(Cc1ccccc1)c1cc(O)c(O)c([N+](=O)[O-])c1 [NEBICAPONE]
Mus musculus [5]
  level, % of control at 30 mg/kg: 85.7%

## O=[N+]([O-])c1cc(-c2ccn[nH]2)cc(O)c1O
[3]
  residual activity: 0%

## Oc1ccc(-c2ccnn2-c2ccc(C(F)(F)F)cc2)c(F)c1O
[6]
  residual activity: 32.3%

## O=C(O)c1cc(-c2ccnn2-c2cccc(Cl)c2)cc(O)c1O
[6]
  residual activity: 24.1%

## O=[N+]([O-])c1cc(-c2nc(-c3cccnc3)no2)cc(O)c1O
[1]
  viability at 30 µM: 26.7%

## O=[N+]([O-])c1cc(-c2nc(-c3ccc(Br)cc3)no2)cc(O)c1O
[1]
  viability at 30 µM: 12.2%
Mus musculus [2]
  level, % of control at 3 mg/kg: 12.7%

## CC(=O)N1CCN(c2noc(-c3cc(O)c(O)c([N+](=O)[O-])c3)n2)CC1
[1]
  viability at 30 µM: 104%
Mus musculus [2]
  level, % of control at 3 mg/kg: 68.2%

## O=[N+]([O-])c1cc(-c2nc(-c3ccccc3)no2)cc(O)c1O
[1]
  viability at 30 µM: 43.1%
Rattus norvegicus [7]
  level, % of control at 3 mg/kg: 71.7%
Rattus norvegicus [4]
  level, % of control at 3 mg/kg: 20.6%
Mus musculus [2]
  level, % of control at 3 mg/kg: 20.6%
Mus musculus [5]
  level, % of control at 30 mg/kg: 7%

## Cc1nc(-c2noc(-c3cc(O)c(O)c([N+](=O)[O-])c3)n2)cs1
[1]
  viability at 30 µM: 58.7%
Mus musculus [2]
  level, % of control at 3 mg/kg: 22.9%

## N#Cc1ccc(-n2nccc2-c2cc(O)c(O)c([N+](=O)[O-])c2)cc1
[3]
  residual activity: 0.3%
Mus musculus [5]
  level, % of control at 30 mg/kg: 61.1%
